Assay results from PubChem BioAssay (NCI).
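In this assay, cells in 96-well plates receive the compound at five concentrations for 48 hours. Endpoints are linearly interpolated between the surrounding concentrations. GI50 marks 50% less growth. TGI is the concentration that stops growth completely.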

Assays:
Assay in all cases: inhibition of tumour cell growth, NCI panel, 48 h
[1] = tested on: UACC-62 melanoma
[2] = tested on: K-562 leukemia
[3] = tested on: OVCAR-5 ovarian
[4] = tested on: IGROV1 ovarian
[5] = tested on: SF-539 CNS
[6] = tested on: T-47D breast
[7] = tested on: SK-MEL-2 melanoma
[8] = tested on: HOP-62 NSCLC
[9] = tested on: RPMI-8226 leukemia
[10] = tested on: RXF 393 renal
[11] = tested on: CCRF-CEM leukemia
[12] = tested on: DU-145 prostate
[13] = tested on: EKVX NSCLC
[14] = tested on: NCI-H226 lung
[15] = tested on: HT29 colon
[16] = tested on: UO-31 renal
[17] = tested on: MCF7 breast
[18] = tested on: OVCAR-4 ovarian
[19] = tested on: KM12 colon
[20] = tested on: HCT-15 colon
[21] = tested on: MALME-3M melanoma
[22] = tested on: HCT-116 colon
[23] = tested on: M14 melanoma
[24] = tested on: SK-OV-3 ovarian
[25] = tested on: SK-MEL-5 melanoma
[26] = tested on: TK-10 renal
[27] = tested on: COLO 205 colon
[28] = tested on: HOP-92 NSCLC
[29] = tested on: SN12C renal
[30] = tested on: MDA-MB-435
[31] = tested on: HS 578T breast
[32] = tested on: A549 NSCLC
[33] = tested on: SF-268 CNS
[34] = tested on: SW-620 colon
[35] = tested on: PC-3 prostate
[36] = tested on: CAKI-1 renal
[37] = tested on: SK-MEL-28 melanoma
[38] = tested on: NCI-H522 lung
[39] = tested on: NCI/ADR-RES ovarian
[40] = tested on: SR leukemia
[41] = tested on: LOX IMVI melanoma
[42] = tested on: BT-549 breast
[43] = tested on: NCI-H460 lung
[44] = tested on: OVCAR-8 ovarian
[45] = tested on: HL-60(TB) leukemia
[46] = tested on: SNB-19 CNS
[47] = tested on: U251 CNS
[48] = tested on: UACC-257 melanoma
[49] = tested on: HCC-2998 colon
[50] = tested on: SNB-75 CNS
[51] = tested on: MDA-MB-231 breast
[52] = tested on: 786-0 renal
[53] = tested on: SF-295 CNS
[54] = tested on: ACHN renal
[55] = tested on: MOLT-4 leukemia
[56] = tested on: A498 renal

CCNC(=O)Oc1ccc(/C(=C(/C)c2ccc(OC)cc2)c2ccc(OCCN3CCCCCC3)cc2)cc1
GI50 [1]: 1.79 µM
TGI [1]: 6.33 µM
GI50 [2]: 1.22 µM
TGI [2]: 3.37 µM
GI50 [3]: 6.48 µM
TGI [3]: 12.8 µM
GI50 [4]: 5.42 µM
TGI [4]: 12.5 µM
GI50 [5]: 2.08 µM
TGI [5]: 7.74 µM
GI50 [6]: 1.23 µM
TGI [6]: 7.88 µM
GI50 [7]: 5.18 µM
TGI [7]: 11.2 µM
GI50 [8]: 5.84 µM
TGI [8]: 12.3 µM
GI50 [9]: 1.18 µM
TGI [9]: 3.21 µM
GI50 [10]: 1.3 µM
TGI [10]: 5.03 µM
GI50 [11]: 2.25 µM
TGI [11]: 33.4 µM
GI50 [12]: 6.76 µM
TGI [12]: 13.2 µM
GI50 [13]: 6.39 µM
TGI [13]: 13.5 µM
GI50 [14]: 6.42 µM
TGI [14]: 14.6 µM
GI50 [15]: 1.66 µM
TGI [15]: 6.08 µM
GI50 [16]: 1.43 µM
TGI [16]: 5.53 µM
GI50 [17]: 0.786 µM
TGI [17]: 7.41 µM
GI50 [18]: 5.16 µM
TGI [18]: 11.7 µM
GI50 [19]: 8.88 µM
TGI [19]: 16.7 µM
GI50 [20]: 1.57 µM
TGI [20]: 6.68 µM
GI50 [21]: 1.1 µM
TGI [21]: 2.57 µM
GI50 [22]: 2.57 µM
TGI [22]: 8.68 µM
GI50 [23]: 0.913 µM
TGI [23]: 1.83 µM
GI50 [24]: 5.01 µM
TGI [24]: 11.1 µM
GI50 [25]: 2.23 µM
TGI [25]: 8.13 µM
GI50 [26]: 9.35 µM
TGI [26]: 16.5 µM
GI50 [27]: 1.07 µM
TGI [27]: 2.38 µM
GI50 [28]: 1.89 µM
TGI [28]: 9.17 µM
GI50 [29]: 5.55 µM
TGI [29]: 12.1 µM
GI50 [30]: 3.69 µM
TGI [30]: 10.3 µM
GI50 [31]: 2.48 µM
TGI [31]: 11.3 µM
GI50 [32]: 3.88 µM
TGI [32]: 10.3 µM
GI50 [33]: 6.69 µM
TGI [33]: 15 µM
GI50 [34]: 1.3 µM
TGI [34]: 3.28 µM
GI50 [35]: 2.75 µM
TGI [35]: 9.67 µM
GI50 [36]: 2.34 µM
TGI [36]: 8.3 µM
GI50 [37]: 1.45 µM
TGI [37]: 4.48 µM
GI50 [38]: 6.43 µM
TGI [38]: 13.5 µM
GI50 [39]: 4.41 µM
TGI [39]: 11.1 µM
GI50 [40]: 1.06 µM
TGI [40]: 2.76 µM
GI50 [41]: 0.865 µM
TGI [41]: 1.91 µM
GI50 [42]: 5.06 µM
TGI [42]: 10.9 µM
GI50 [43]: 1.95 µM
TGI [43]: 6.91 µM
GI50 [44]: 5.72 µM
TGI [44]: 12.2 µM
GI50 [45]: 1.39 µM
TGI [45]: 4.59 µM
GI50 [46]: 5.92 µM
TGI [46]: 12.2 µM
GI50 [47]: 2.55 µM
TGI [47]: 8.87 µM
GI50 [48]: 1.06 µM
TGI [48]: 2.76 µM
GI50 [49]: 2.93 µM
TGI [49]: 9.29 µM
GI50 [50]: 6.03 µM
TGI [50]: 12.9 µM
GI50 [51]: 2.74 µM
TGI [51]: 9.28 µM
GI50 [52]: 1.86 µM
TGI [52]: 6.78 µM
GI50 [53]: 1.15 µM
TGI [53]: 3.44 µM
GI50 [54]: 6.04 µM
TGI [54]: 12.2 µM
GI50 [55]: 1.44 µM
TGI [55]: 5.06 µM
GI50 [56]: 2.67 µM
TGI [56]: 9.65 µM
